Measurements reported in ChEMBL document CHEMBL1201862, “PubChem BioAssay data set” (2004).
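Dose response: 5 concentrations. Exposure: 48 h. Format: 96-well plates. Endpoint: linear interpolation; highest concentration if not reached. Here, GI50 denotes the concentration required for 50% inhibition of growth.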 Activity calls are given as the source filed them. No stated cut-off is given here; in the data, active = GI50 up to about 1.1 µM and inactive = higher.

Experiments:
Experiment in all cases: NCI tumour cell line growth inhibition, 48 h
[1] = test system: PC-3
[2] = test system: KM12
[3] = test system: RPMI-8226
[4] = test system: NCI-H226
[5] = test system: ACHN
[6] = test system: MDA-N
[7] = test system: TK-10
[8] = test system: NCI-H23
[9] = test system: OVCAR-8
[10] = test system: SF-539
[11] = test system: SR
[12] = test system: A498
[13] = test system: HCC 2998
[14] = test system: MDA-MB-435
[15] = test system: NCI-H522
[16] = test system: HOP-62
[17] = test system: MCF7
[18] = test system: CAKI-1
[19] = test system: SNB-75
[20] = test system: OVCAR-3

Measured: GI50

O=C(Oc1cc(=O)c(OC(=O)c2ccccc2)co1)c1ccccc1
inactive: [1] 91 µM | [2] > 100 µM | [3] 47.4 µM | [4] 85.3 µM | [5] > 100 µM | [6] > 100 µM | [7] > 100 µM | [8] > 100 µM | [9] > 100 µM | [10] 46.5 µM | [11] 31.7 µM | [12] > 100 µM | [13] > 100 µM | [14] > 100 µM | [15] 26.9 µM | [16] 80 µM | [17] > 100 µM | [18] > 100 µM | [19] 45.6 µM | [20] > 100 µM

CC(CCC#N)(CCC#N)C(=O)CC(O)(C(F)(F)F)C(F)(F)F
inactive: [1] 11.9 µM | [2] 18.1 µM | [3] 2.64 µM | [4] 19.8 µM | [5] 4.13 µM | [6] 1.73 µM | [7] 7.71 µM | [8] 5.43 µM | [9] 3.3 µM | [10] 3.44 µM | [11] 1.4 µM | [12] 20.6 µM | [13] 17 µM | [14] 5.6 µM | [15] 1.85 µM | [16] 19.8 µM | [17] 6.5 µM | [18] 4.09 µM | [19] 14.9 µM | [20] 2.76 µM

Cc1ccc2c(c1)C(=O)/C(=C\c1ccc(Cl)cc1)CCS2(=O)=O
inactive: [1] 5.09 µM | [2] 2.66 µM | [3] 2.34 µM | [4] 3.84 µM | [5] 1.95 µM | [6] 4.81 µM | [7] 2.1 µM | [8] 3.28 µM | [9] 1.95 µM | [10] 2 µM | [11] 1.66 µM | [12] 12.4 µM | [13] 2.13 µM | [14] 4.35 µM | [15] 1.52 µM | [16] 6.67 µM | [17] 3.85 µM | [18] 3.07 µM | [19] 3.88 µM | [20] 4.24 µM

CC1(C)CC2(C)ON=C(c3ccccc3)N2c2ccccc2N1 (stereo not given)
inactive: [1] 14.8 µM | [2] 30.6 µM | [3] 29 µM | [4] 17.3 µM | [5] 19.5 µM | [6] 21.2 µM | [7] 39.4 µM | [8] 25 µM | [9] 27.7 µM | [10] 19.5 µM | [11] 34.5 µM | [12] 28.6 µM | [13] 35.2 µM | [14] 19.8 µM | [15] 21.4 µM | [16] 17.7 µM | [17] 22.2 µM | [18] 20.8 µM | [19] 23.9 µM | [20] 16.5 µM

CC(=O)O[C@H]1CC[C@@]2(C)C(=CC[C@@H]3[C@@H]2CC[C@]2(C)NC(=O)/C(=C\c4ccccc4)C[C@@H]32)C1
inactive: [1] 18.4 µM | [2] 18.1 µM | [3] 12.3 µM | [4] 18.3 µM | [5] 21.9 µM | [6] 19.6 µM | [7] 29.9 µM | [8] 15.9 µM | [9] 20.5 µM | [10] 16.1 µM | [11] 55 µM | [12] 13.8 µM | [13] 21.3 µM | [14] 14.8 µM | [15] 15.6 µM | [16] 13.2 µM | [17] 14.9 µM | [18] 25.9 µM | [19] 19.1 µM | [20] 12.9 µM
